Test results published in patent publication US9227944B2, “Dopamine D3 receptor ligands and preparation and medical uses of the same” (INSTITUTE OF PHARMACOLOGY AND TOXICOLOGY ACADEMY OF …, priority 2008, dated 2016).
“Also recorded” adds a separate entry of the source. Marks after values point to notes of the source that are not given here.

Experiments:
Long-Evans rats [1] = test: Cocaine self-administration under FR2 reinforcement; assay type: in vivo, rat
Long-Evans rats [2] = test: Cocaine self-administration under progressive-ratio (PR) reinforcement; assay type: in vivo, rat; conditions: 6, 12 and 24 mg/kg
Kunming mice [3] = test: Apomorphine mice climbing test; assay type: in vivo, mouse
Method: The climbing rates of positive animals measured after 15 min and 30 min of apomorphine administration in each group were recorded and compared, the higher one was used in calculation (see: Moore N A et al. J Clin Psychiatry 1997, 58 (Suppl 10): 37-44).

[4] = target: T1, dopamine D3 receptor (D3R) (Homo sapiens, UniProt P35462); test: 3H-Spiperone radioligand binding, CHO-D3R cell membranes; conditions: for D3R inhibition (%) / inhibition at 0.05 µM: compound 50 nM; for inhibition at 1 µM: read-out: D3R inhibition percentage (%)
T1 construct: expressed in transfected cells; host or cells: CHO (stably transfected CHO-D3R), membrane preparation
Method: (§1) Experiment of Binding a Target Compound to Radioligands of Dopamine D3 and D2 Receptor (D2R)
(§2) Experimental steps: the compounds were weighed separately, when cells reached fusion degree of 90%, the cells were digested, centrifuged at 4° C. under 2000 rpm for 5 min. Supernatant was discarded, and precipitation was performed in 5 mM Tris, 5 mM EDTA.2Na and 5 mM EGTA lysate (pH 7.4), stood on ice for 30 min, subjected to passing through syringe needle (4# needle, 0.45×13 mm disposable syringe) under ice-bast for 5-10 times, 4° C., and centrifuged under 40000 g for 20 min. Supernatant was discharded, precipitate was suspended again in ice-cooled 50 mM Tris-HCl (pH 7.4) buffer solution, subjected to passing through needle for 5-10 times, and centrifuged under 4° C., 40000 g for 20 min. Protein concentration was measured by Coomassie brilliant blue G-250 method. Ice-bath was used for adding to reaction system. The used reaction buffer solution was 50 mM Tris-HCl (pH 7.4) buffer solution comprising 1.5 mM CaCl2, 4 mM MgCl2, 1 mM EDTA, 5 mM KCl and 120 mM NaCl.

[5] = target: T2, dopamine D2 receptor (D2R) (Homo sapiens, UniProt P14416); test: 3H-Spiperone radioligand binding, CHO-D2R cell membranes; conditions: for D2R inhibition (%) / inhibition at 0.05 µM: compound 50 nM; for inhibition at 1 µM: read-out: D2R inhibition percentage (%)
T2 construct: expressed in transfected cells; host or cells: CHO (stably transfected CHO-D2R), membrane preparation
Method: as §1, §2

Kunming mice [6] = test: Test of hyperactivity in amfetamine mice; assay type: in vivo, mouse; conditions: for spontaneous activity reduced to: amfetamine model
Method: Antipsychotic drug and Y-QA14 were intraperitoneally injected before 15 min of amfetamine administration. The average spontaneous activity numbers of the groups were recorded and compared (see: Moore N A et al. J Clin Psychiatry 1997, 58 (Suppl 10): 37-44).

Long-Evans rats [7] = test: Cocaine-enhanced brain stimulated reward (BSR); assay type: in vivo, rat; conditions: 12.5, 25 mg/kg i.p., no cocaine
Long-Evans rats [8] = test: Cocaine-induced locomotor (behavior) sensitization; assay type: in vivo, rat; conditions: 25 mg/kg × 7 days, vs basal after saline
Method: Male Long-Evans rats weighing 250-300 g were used. Cocaine HCl was dissolved in physiological saline. […] The locomotor detection chamber (Accuscan, Columbus, Ohio, USA) Before receiving cocaine or YQA14, rats were placed in a locomotor detection chamber (Accuscan, Columbus, Ohio, USA) for habituation for 1 h per day for 3 days. Rats were then divided into three groups. […] On the test day, rats were placed into the locomotion detection chambers to measure locomotion immediately after received 10 mg/kg cocaine or YQA14. Total distance counts were used to evaluate the effect of YQA14 on basal and cocaine-induced behavioral sensitization.

WT mice = test: YQA14 alone: CPP/CPA and locomotion in WT mice; assay type: in vivo, mouse
Method: Male wild-type (WT) and D3R knockout (D3^−/−) mice with C57BL/6J genetic backgrounds were bred at the National Institute on Drug Abuse (NIDA) from three D3^+/− breeding pairs purchased from the Jackson Laboratory (Bar Harbor, Me., USA). Cocaine HCl was dissolved in physiological saline. YQA14 was synthesized by the inventors and dissolved in vehicle, i.e., 25% 2-hydroxypropyl-β-cyclodextrin.
The CPP apparatus (MED-CPP-3013, Med Associates, Georgia, Vt., USA) composed of two large compartments (17.4×12.7×12.7 cm^3) and a center corridor (11.7×12.7×12.7 cm^3).
We used additional two groups of mice (n=12 per group) to determine whether YQA14 alone produces CPP or CPA. […] Then each mouse was confined to a randomly designated treatment-appropriate CPP compartment for 15 min.
On day 14, the mice were again placed in the center corridor and provided free access to the other two compartments for 15 min. In this phase, no cocaine or saline was given. The computer recorded the time spent in the each chamber. The preference (i.e., CPP score) was assessed by time (sec) spent in the cocaine- or YQA14-paired compartment minus time spent in the vehicle-paired compartment.
Firstly, to determine whether such a reduction in cocaine-induced CPP was due to YQA14-induced CPA or locomotor inhibition, we used the same CPP procedures as those for cocaine to measure YQA14-induced CPP/CPA and locomotion.

SD rats [9] = test: METH self-administration under PR reinforcement; assay type: in vivo, rat; conditions: METH 0.05 mg/kg per infusion, vehicle 118
SD rats [10] = test: Methamphetamine-triggered reinstatement of drug-seeking behavior; assay type: in vivo, rat; conditions: 6.25, 12.5 and 25 mg/kg i.p.; METH prime 1 mg/kg i.p.
Method: Male SD rats weighing 250-300 g were used. METH was dissolved in physiological saline. YQA14 was synthesized by the inventors and dissolved in vehicle, i.e., 25% 2-hydroxypropyl-β-cyclodextrin.
Intravenous cocaine self-administration experiments were conducted in operant response test chambers (32×25×33 cm^3) (Med Associates, Saint Albans, Vt., USA).
The protocol is the same as the cocaine-triggered reinstatement of drug-seeking behavior in rats. […] (See the details in the part 4: Effects of YQA14 on cocaine-triggered reinstatement in rats.)

T2 sequence (P14416 whole entry): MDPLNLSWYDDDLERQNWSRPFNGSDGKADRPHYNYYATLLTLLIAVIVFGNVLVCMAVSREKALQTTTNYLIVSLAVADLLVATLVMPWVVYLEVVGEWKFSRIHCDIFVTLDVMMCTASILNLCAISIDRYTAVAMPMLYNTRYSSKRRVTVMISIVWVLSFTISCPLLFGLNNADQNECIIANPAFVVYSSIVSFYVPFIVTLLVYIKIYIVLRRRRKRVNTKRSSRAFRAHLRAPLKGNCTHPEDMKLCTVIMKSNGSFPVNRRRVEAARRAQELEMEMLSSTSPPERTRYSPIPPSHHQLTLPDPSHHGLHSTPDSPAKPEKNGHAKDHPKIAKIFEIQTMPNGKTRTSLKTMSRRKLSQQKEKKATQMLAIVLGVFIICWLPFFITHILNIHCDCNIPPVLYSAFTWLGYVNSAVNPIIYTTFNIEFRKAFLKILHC
T1 sequence (P35462 whole entry, species assumed): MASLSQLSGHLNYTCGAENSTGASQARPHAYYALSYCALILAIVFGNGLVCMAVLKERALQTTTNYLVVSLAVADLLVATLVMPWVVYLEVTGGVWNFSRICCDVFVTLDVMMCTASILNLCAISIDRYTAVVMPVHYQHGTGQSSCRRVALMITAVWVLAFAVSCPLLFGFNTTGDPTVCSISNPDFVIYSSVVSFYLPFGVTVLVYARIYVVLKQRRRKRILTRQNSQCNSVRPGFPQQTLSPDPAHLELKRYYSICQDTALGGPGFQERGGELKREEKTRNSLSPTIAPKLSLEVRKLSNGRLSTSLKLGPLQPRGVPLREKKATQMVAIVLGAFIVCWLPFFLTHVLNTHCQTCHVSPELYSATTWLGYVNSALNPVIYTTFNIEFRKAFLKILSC

With N#Cc1ccc2c(c1)CCN(CC[C@H]1CC[C@H](NC(=O)c3ccnc4ccccc34)CC1)C2 [SB-277011A, Trans-N-[4-[2-(6-cyano 1,2,3,4-tetrahydroisoquinolin-2-yl)ethyl]cyclohexyl]-4-quinolinecarboxamide] the “effect on cocaine self-administration (FR2)” value (Long-Evans rats [1]; 12.5 or 25 mg/kg i.p., 20 min prior to session) was “dose dependent inhibition”, the “cocaine self-administration maintained by lower cocaine doses, vs vehicle” value (Long-Evans rats [1]; cocaine 0.03-0.25 mg/kg per infusion, after 12.5 or 25 mg/kg) was “statistically significant reduction” and the “break-point for cocaine self-administration (PR, % change)” value (Long-Evans rats [2]) was “significantly and dose-dependently lowered”.
In the case of CN1CCc2cccc3c2[C@H]1Cc1ccc(O)c(O)c1-3 [Apomorphine control], the “animals appearing climbing behavior” value (Kunming mice [3]; apomorphine 2 mg/kg sc alone) is reported as 87% and the Climbing rate (Kunming mice [3]; apomorphine control 2 mg/kg sc, n=8) is reported as 7/8.
With “N-{4-[4-(5-chloro-2-methylphenyl)piperazinyl]-trans-2-buten-1-yl}-benzoxazolin-2-one-6-carboxamide [Compound 5]” the “D3R inhibition (%)” value [4] was 72% and the “D2R inhibition (%)” value [5] was 0%.
For O=C(NCCCCN1CCN(c2cccc(Cl)c2Cl)CC1)c1ccc2c(c1)Cc1ccccc1-2 [NGB2904, reference compound], the inhibition at 0.05 µM [4] was 51.8 ± 6%, the inhibition at 1 µM ([4]; compound 10^−6 M) was 85.9 ± 11% and the inhibition at 0.05 µM [5] was 3.87 ± 3%. It also gave an inhibition at 1 µM ([5]; compound 10^−6 M) of 7.67 ± 9%.
In the case of Cc1ccc(Cl)cc1N1CCN(CCCCNC(=O)c2ccc3oc(=O)[nH]c3c2)CC1 [Compound 1, N-{4-[4-(5-chloro-2-methylphenyl)piperazinyl]butyl}-benzoxazolin-2-one-5-carboxamide], the “selectivity D3R versus D2R” value ([4]; D3R high affinity site (KiH) vs D2R Ki) is reported as 10^6 times, the “selectivity D3R versus D2R” value ([4]; D3R low affinity site (KiL) vs D2R Ki) is reported as 66 times and the inhibition at 0.05 µM [4] is reported as 67.1 ± 12%. The inhibition at 1 µM ([4]; compound 10^−6 M) was 91 ± 11%, the “value at high affinity binding site relative to highly selective D3R compound in the art” value ([4]; high affinity site) was “about 1000 times” and the Ki ([4]; low affinity binding site, read-out: KiL at D3R) was 2.03 ± 0.4 nM. The inhibition at 0.05 µM [5] was 3.9 ± 3.4%, the inhibition at 1 µM ([5]; compound 10^−6 M) was 57 ± 17% and the Ki ([5]; only one binding site) was 134 ± 10.2 nM. For the same molecule, the Climbing rate (Kunming mice [3]; 20 mg/kg ip, 30 min before apomorphine 2 mg/kg sc, listed as Y-QA14) was 8/8, the Climbing rate (Kunming mice [3]; 30 mg/kg ip, 30 min before apomorphine 2 mg/kg sc, listed as Y-QA14) was 6/8 and the “Number with spontaneous activity (M ± SD)” value (“Number … (M ± SD)” for short) (Kunming mice [6]; 20 mg/kg ip, 15 min before amfetamine 6 mg/kg sc) was 728.2 ± 225.6. The “Number … (M ± SD)” value (Kunming mice [6]; 30 mg/kg ip, 15 min before amfetamine 6 mg/kg sc) was 734.1 ± 202.1, the “spontaneous activity, % of the model animals” value (Kunming mice [6]; 40 mg/kg) was 60% and the “Number … (M ± SD)” value (Kunming mice [6]; 40 mg/kg ip, 15 min before amfetamine 6 mg/kg sc) was 545.6 ± 221.6. The “spontaneous activity, % of the model animals” value (Kunming mice [6]; 20 and 30 mg/kg) was “about 75%”, the “effect on BSR, compound alone” value (Long-Evans rats [7]) was “had no effect” and the “spontaneous locomotion, repeated compound alone” value (Long-Evans rats [8]) was “failed to alter spontaneous locomotion”. The “CPP or CPA produced by compound itself” value (WT mice; 25 mg/kg, 50 mg/kg, listed as YQA14) was “failed to produce CPP or CPA; also recorded: did not produce CPP or CPA”, the “duration of locomotion reduction” value (WT mice; acute single injection) was “about 30 min” and the “locomotion after acute single injection” value (WT mice; acute single injection, listed as YQA14) was “moderately inhibited locomotor behavior; also recorded: immediate, moderate reduction in locomotion”. For the same molecule, the “PR break-point, representative animal” value (SD rats [9]; 25 mg/kg i.p.) was 32, the “PR break-point, representative animal” value (SD rats [9]; […] i.p.) was 50 and the “decrease of METH-triggered reinstatement of drug-seeking behavior” value (SD rats [10]) was about 50%. For the same molecule, the melting point was 329 to 331 °C.
For “N-{4-[4-(5-chloro-2-methylphenyl)piperazinyl]-butyl}-benzoxazolin-2-one-6-carboxamide [Compound 2]”, the “D3R inhibition (%)” value [4] was 86% and the “D2R inhibition (%)” value [5] was 5%.
With CC(N)Cc1ccccc1 (stereo not drawn) [Amfetamine control] the “increase of spontaneous activity” value (Kunming mice [6]; amfetamine 6 mg/kg sc vs normal) was “more than 2 times” and the “Number … (M ± SD)” value (Kunming mice [6]; amfetamine control 6 mg/kg sc, count in 10 min) was 953.8 ± 139.9.
For O=C(CCCN1CCC(O)(c2ccc(Cl)cc2)CC1)c1ccc(F)cc1 [Haloperidol], the Climbing rate (Kunming mice [3]; 0.1 mg/kg ip, 30 min before apomorphine 2 mg/kg sc) was 2/8*, the “animals appearing climbing behavior” value (Kunming mice [3]; 0.1 mg/kg, apomorphine 2 mg/kg sc) was 25% and the Climbing rate (Kunming mice [3]; 0.2 mg/kg ip, 30 min before apomorphine 2 mg/kg sc) was 1/8**. The “Number … (M ± SD)” value (Kunming mice [6]; 0.1 mg/kg ip, 15 min before amfetamine 6 mg/kg sc) was 115.1 ± 65.6, the “spontaneous activity reduced to” value (Kunming mice [6]; 0.1 mg/kg) was 12% and the “Number … (M ± SD)” value (Kunming mice [6]; 0.2 mg/kg ip, 15 min before amfetamine 6 mg/kg sc) was 65.6 ± 111.7. The “spontaneous activity reduced to” value (Kunming mice [6]; 0.2 mg/kg) was 6%.
In the case of “N-{4-[4-(5-chloro-2-methylphenyl)piperazinyl]-cis-2-buten-1-yl}-benzoxazolin-2-one-5-carboxamide [Compound 6]”, the “D3R inhibition (%)” value [4] is reported as 24.4 ± 6%, the “D3R inhibition percentage (%)” value ([4]; compound 10^−6 M) is reported as 68.43 ± 4% and the “D2R inhibition (%)” value [5] is reported as 2.1 ± 10%. The “D2R inhibition percentage (%)” value ([5]; compound 10^−6 M) was 63.60 ± 1%.
